Reference: ChEMBL document CHEMBL5030545, “Discovery of clinical candidate Sivopixant (S-600918): Lead optimization of dioxotriazine derivatives as selective P2X3 receptor antagonists” (Bioorg Med Chem Lett, 2021)
Values after ≈ are worked out from the molar mass of the structure shown.

What was measured:
Rattus norvegicus [1] = test: Analgesic activity in rat model of partial sciatic nerve ligation-induced neuropathic pain assessed as reversal of allodynia at 10 mg/kg, po measured after 3 hrs relative to control; assay type: functional
[2] = Plasma concentration in rat at 1 mg/kg, po measured after 3 hrs; assay type: ADME, organism-based
[3] = Plasma concentration in rat at 3 mg/kg, po measured after 3 hrs; assay type: ADME, organism-based
Rattus norvegicus [4] = test: Analgesic activity in rat model of partial sciatic nerve ligation-induced neuropathic pain assessed as reversal of allodynia at 3 mg/kg, po measured after 3 hrs relative to control; assay type: functional
Rattus norvegicus [5] = test: Analgesic activity in rat model of partial sciatic nerve ligation-induced neuropathic pain assessed as reversal of allodynia at 1 mg/kg, po measured after 3 hrs relative to control; assay type: functional
[6] = Plasma concentration in rat at 10 mg/kg, po measured after 3 hrs; assay type: ADME, organism-based
P2X purinoceptor 3 = target: T1, P2X purinoceptor 3 (Rattus norvegicus, UniProt P49654); test: Antagonist activity at rat P2X3 receptor
T1 sequence (P49654 whole entry): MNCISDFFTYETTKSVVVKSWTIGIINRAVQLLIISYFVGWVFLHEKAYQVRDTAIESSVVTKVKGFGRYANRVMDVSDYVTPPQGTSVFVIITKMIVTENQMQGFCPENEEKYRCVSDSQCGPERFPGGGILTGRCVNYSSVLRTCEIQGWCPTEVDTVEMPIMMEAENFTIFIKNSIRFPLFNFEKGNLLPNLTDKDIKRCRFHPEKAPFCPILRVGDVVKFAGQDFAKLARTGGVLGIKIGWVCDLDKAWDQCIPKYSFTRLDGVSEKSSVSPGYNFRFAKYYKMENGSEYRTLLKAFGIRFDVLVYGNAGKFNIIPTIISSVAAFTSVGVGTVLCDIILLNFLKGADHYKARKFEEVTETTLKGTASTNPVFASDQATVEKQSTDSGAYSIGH

[7] = Clearance in rat at 1 mg/kg, iv; assay type: ADME, organism-based; conditions: in vivo
[8] = Half life in rat at 1 mg/kg, iv; assay type: ADME, organism-based; conditions: in vivo
[9] = Oral bioavailability in rat at 1 mg/kg administered as cassette dose; assay type: ADME, organism-based; conditions: in vivo
[10] = Protein binding in rat plasma assessed as unbound fraction at 1 mg/kg administered as cassette dose; assay type: ADME, organism-based
[11] = Free plasma concentration in rat plasma at 1 mg/kg administered as cassette dose; assay type: ADME, organism-based; conditions: in vivo
P2X purinoceptor 1 = target: T2, P2X purinoceptor 1 (Homo sapiens, UniProt P51575); test: Antagonist activity at P2X1 receptor (unknown origin)
T2 sequence (P51575 whole entry): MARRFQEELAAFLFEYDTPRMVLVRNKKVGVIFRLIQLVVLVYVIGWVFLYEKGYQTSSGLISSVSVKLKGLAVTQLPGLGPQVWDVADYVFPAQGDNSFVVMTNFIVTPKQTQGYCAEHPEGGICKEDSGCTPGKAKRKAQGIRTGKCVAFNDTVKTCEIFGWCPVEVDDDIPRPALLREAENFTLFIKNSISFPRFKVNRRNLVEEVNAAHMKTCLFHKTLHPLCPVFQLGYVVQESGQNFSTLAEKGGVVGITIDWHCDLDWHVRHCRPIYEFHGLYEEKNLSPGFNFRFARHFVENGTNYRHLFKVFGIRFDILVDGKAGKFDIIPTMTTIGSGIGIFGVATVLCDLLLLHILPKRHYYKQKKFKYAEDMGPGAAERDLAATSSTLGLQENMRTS

P2X purinoceptor 2 = target: T3, P2X purinoceptor 2 (Homo sapiens, UniProt Q9UBL9); test: Antagonist activity at P2X2 receptor (unknown origin)
T3 sequence (Q9UBL9 whole entry): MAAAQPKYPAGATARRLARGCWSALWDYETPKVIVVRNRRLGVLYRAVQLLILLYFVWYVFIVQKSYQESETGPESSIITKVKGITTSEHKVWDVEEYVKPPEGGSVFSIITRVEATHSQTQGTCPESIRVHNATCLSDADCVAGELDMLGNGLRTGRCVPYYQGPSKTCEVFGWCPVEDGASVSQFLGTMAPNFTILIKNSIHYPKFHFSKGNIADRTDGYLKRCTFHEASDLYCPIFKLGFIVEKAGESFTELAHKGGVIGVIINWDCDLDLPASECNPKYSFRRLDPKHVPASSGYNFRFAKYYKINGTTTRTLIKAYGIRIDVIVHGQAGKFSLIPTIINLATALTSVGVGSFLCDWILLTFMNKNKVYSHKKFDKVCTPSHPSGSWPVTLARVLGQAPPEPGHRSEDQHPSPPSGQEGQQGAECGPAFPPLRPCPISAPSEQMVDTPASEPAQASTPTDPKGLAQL

P2X purinoceptor 4 = target: T4, P2X purinoceptor 4 (Homo sapiens, UniProt Q99571); test: Antagonist activity at P2X4 receptor (unknown origin)
T4 sequence (Q99571 whole entry): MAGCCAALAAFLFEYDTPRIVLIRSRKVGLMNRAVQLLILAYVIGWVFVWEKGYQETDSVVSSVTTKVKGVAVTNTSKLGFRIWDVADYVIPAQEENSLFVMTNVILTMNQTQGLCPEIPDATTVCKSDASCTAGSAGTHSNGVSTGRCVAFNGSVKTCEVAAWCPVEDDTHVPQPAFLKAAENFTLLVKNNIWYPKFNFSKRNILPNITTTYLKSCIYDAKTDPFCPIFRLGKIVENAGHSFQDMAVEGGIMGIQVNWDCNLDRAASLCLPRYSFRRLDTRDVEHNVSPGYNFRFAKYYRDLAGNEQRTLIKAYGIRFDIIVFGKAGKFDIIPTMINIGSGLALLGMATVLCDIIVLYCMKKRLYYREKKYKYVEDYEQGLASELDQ

P2X purinoceptor 7 = target: T5, P2X purinoceptor 7 (Homo sapiens, UniProt Q99572); test: Antagonist activity at P2X7 receptor (unknown origin)
T5 sequence (Q99572 whole entry): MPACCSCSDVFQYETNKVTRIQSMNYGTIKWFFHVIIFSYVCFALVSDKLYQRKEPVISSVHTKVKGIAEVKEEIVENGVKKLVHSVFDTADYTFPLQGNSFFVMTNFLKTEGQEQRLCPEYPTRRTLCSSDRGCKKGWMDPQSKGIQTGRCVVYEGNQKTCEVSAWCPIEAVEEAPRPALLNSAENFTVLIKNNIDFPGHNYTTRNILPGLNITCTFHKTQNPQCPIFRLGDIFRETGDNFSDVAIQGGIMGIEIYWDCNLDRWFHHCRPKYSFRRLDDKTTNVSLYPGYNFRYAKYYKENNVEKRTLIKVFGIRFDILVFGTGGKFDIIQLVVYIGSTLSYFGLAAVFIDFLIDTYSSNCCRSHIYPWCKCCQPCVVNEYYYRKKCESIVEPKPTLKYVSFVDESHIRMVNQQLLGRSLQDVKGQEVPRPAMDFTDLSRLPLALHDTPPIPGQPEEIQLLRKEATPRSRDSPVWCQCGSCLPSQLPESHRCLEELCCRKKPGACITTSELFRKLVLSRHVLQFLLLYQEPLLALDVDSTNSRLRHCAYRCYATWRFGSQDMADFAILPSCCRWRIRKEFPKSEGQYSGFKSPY

[12] = Solubility of the compound in pH 1.2 JP1 fluid; assay type: physicochemical
[13] = Solubility of the compound in JP2 fluid at pH 6.8; assay type: physicochemical
Cytochrome P450 1A2 = target: T6, Cytochrome P450 1A2 (Homo sapiens, UniProt P05177); test: Inhibition of CYP1A2 (unknown origin); assay type: ADME
T6 sequence (P05177 whole entry): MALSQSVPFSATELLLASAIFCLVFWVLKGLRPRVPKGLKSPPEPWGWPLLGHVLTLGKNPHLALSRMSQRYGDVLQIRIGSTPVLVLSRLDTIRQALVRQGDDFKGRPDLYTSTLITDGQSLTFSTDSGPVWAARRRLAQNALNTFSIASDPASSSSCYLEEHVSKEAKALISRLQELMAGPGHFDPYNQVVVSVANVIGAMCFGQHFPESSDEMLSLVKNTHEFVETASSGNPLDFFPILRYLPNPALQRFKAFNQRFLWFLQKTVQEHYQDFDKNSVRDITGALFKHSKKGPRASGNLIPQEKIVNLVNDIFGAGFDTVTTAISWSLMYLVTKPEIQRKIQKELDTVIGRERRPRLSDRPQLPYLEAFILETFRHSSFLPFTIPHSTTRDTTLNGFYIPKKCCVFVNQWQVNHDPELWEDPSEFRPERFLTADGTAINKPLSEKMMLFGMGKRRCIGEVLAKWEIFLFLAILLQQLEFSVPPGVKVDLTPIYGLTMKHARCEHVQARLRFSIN

Cytochrome P450 2C9 = Cytochrome P450 2C9 (Homo sapiens, UniProt P11712); test: Inhibition of CYP2C9 (unknown origin); assay type: ADME
Cytochrome P450 2C9, sequence (P11712 whole entry): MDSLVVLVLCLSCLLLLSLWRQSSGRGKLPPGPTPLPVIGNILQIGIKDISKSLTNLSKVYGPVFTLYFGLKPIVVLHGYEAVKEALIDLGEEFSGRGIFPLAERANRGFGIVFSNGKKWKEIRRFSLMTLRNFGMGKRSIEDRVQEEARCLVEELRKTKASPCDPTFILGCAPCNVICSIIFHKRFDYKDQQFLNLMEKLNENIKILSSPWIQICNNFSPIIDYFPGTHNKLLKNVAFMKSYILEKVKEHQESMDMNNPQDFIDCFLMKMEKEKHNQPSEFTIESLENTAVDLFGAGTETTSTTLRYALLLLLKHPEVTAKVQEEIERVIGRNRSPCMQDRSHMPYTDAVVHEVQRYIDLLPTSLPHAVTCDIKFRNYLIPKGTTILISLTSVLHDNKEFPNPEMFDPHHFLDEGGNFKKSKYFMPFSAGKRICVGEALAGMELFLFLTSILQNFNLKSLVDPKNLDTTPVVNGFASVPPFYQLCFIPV

Cytochrome P450 2C19 = Cytochrome P450 2C19 (Homo sapiens, UniProt P33261); test: Inhibition of CYP2C19 (unknown origin); assay type: ADME
Cytochrome P450 2C19, sequence (P33261 whole entry): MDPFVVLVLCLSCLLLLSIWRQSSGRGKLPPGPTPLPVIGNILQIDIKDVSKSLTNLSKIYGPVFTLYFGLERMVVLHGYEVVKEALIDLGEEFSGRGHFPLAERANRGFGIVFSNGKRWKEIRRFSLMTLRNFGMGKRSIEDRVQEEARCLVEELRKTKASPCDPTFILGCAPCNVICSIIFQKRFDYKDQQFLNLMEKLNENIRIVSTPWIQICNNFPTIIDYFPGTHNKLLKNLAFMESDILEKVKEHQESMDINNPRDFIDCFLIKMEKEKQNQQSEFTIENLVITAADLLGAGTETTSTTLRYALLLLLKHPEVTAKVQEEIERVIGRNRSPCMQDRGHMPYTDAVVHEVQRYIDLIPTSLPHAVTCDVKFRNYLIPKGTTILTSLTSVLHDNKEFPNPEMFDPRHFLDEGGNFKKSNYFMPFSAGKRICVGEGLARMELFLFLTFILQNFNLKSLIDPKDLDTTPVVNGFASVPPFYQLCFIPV

Cytochrome P450 2D6 = Cytochrome P450 2D6 (Homo sapiens, UniProt P10635); test: Inhibition of CYP2D6 (unknown origin); assay type: functional
Cytochrome P450 2D6, sequence (P10635 whole entry): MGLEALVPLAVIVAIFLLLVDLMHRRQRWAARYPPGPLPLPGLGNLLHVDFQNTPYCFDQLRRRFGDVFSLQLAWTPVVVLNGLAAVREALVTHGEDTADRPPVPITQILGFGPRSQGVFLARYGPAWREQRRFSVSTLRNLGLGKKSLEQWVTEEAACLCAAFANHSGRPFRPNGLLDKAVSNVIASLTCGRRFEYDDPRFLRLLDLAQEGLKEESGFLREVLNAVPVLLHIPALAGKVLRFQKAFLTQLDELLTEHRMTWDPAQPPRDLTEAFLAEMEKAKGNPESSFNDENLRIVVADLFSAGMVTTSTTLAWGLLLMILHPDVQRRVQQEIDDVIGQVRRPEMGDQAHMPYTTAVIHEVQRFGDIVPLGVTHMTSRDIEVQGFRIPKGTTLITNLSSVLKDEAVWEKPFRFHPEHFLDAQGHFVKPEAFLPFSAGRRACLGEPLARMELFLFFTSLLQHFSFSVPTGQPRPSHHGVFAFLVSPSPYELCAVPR

Cytochrome P450 3A4 = Cytochrome P450 3A4 (Homo sapiens, UniProt P08684); test: Inhibition of CYP3A4 (unknown origin); assay type: ADME
Cytochrome P450 3A4, sequence (P08684 whole entry): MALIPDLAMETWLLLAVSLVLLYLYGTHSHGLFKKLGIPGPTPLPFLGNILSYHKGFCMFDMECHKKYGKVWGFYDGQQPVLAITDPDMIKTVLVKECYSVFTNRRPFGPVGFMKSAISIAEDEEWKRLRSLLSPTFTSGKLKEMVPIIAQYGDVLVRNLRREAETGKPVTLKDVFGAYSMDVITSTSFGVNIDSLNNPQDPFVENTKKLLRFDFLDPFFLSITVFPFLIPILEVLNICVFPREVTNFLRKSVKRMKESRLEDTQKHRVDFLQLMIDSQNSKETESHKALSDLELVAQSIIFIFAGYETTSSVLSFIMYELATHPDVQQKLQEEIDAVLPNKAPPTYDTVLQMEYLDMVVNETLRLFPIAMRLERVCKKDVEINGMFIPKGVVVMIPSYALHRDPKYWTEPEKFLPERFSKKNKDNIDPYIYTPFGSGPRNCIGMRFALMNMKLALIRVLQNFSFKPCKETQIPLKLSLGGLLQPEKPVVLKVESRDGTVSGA

[14] = AUC in rat at 3 mg/kg, po; assay type: ADME, organism-based; parameters: dose 3 mg/kg; conditions: in vivo
[15] = Cmax in rat at 3 mg/kg, po; assay type: ADME, organism-based; parameters: route oral, dose 3 mg/kg; conditions: in vivo
[16] = Oral bioavailability in rat at 3 mg/kg; assay type: ADME, organism-based; conditions: in vivo
[17] = Protein binding in rat plasma assessed as unbound fraction at 3 mg/kg, iv; assay type: ADME, organism-based
Rattus norvegicus [18] = test: Analgesic activity in po dosed rat model of partial sciatic nerve ligation-induced neuropathic pain; assay type: functional

Row | SMILES | IC50 (P2X purinoceptor 3) [µM] | clearance [7] [mL/min/kg] | half-life [8] [h] | bioavailability [9] [%] | fraction unbound [10] | Cp(f) [11] [nM] | IC50 (P2X purinoceptor 1) [µM] | IC50 (P2X purinoceptor 2) [µM] | IC50 (P2X purinoceptor 4) [µM] | IC50 (P2X purinoceptor 7) [µM] | solubility [12] [µg/mL] | solubility [13] [µg/mL] | IC50 (Cytochrome P450 1A2) [µM] | IC50 (Cytochrome P450 2C9) [µM] | IC50 (Cytochrome P450 2C19) [µM] | IC50 (Cytochrome P450 2D6) [µM] | IC50 (Cytochrome P450 3A4) [µM] | AUC [14] [ng·h/mL] | Cmax [15] [ng/mL] | bioavailability [16] [%] | further results
1 | Cc1ccc(Cn2c(Nc3ccc(OC(C)C)c(Cl)c3)nc(=O)n(CCC(=O)O)c2=O)cc1 | 0.0061 | 2.7 | 1.6 | – | – | – | – | – | – | – | – | – | – | – | – | – | – | – | – | – | Activity (Rattus norvegicus [1]): 40%; concentration at 3 h [2]: 1320 nM; concentration at 3 h [3]: 2650 nM; Activity (Rattus norvegicus [4]): 23%; Activity (Rattus norvegicus [5]): 11%; concentration at 3 h [6]: 7840 nM
2 | C[C@@H](Cn1c(=O)[nH]/c(=N\c2ccc(Oc3ccsn3)cc2)n(Cc2ccc(Cl)cc2)c1=O)C(=O)O | 0.0077 | 2.2 | 4.4 | 87.6 | 0.012 | 671 | > 30 | > 30 | > 30 | > 30 | 0.8 (≈ 1.56 µM) | 650 (≈ 1260 µM) | > 20 | > 20 | > 20 | > 20 | > 20 | 13700 | 1610 | 60 | fraction unbound [17]: 0.012; ED50 (Rattus norvegicus [18]): 0.4 mg/kg
3 | C[C@@H](Cn1c(=O)[nH]/c(=N\c2ccc(Oc3ccnc(F)c3)cc2)n(Cc2ccc(Cl)cc2)c1=O)C(=O)O | 0.0038 | 5.9 | 4.3 | 43.2 | 0.013 | 738 | > 30 | > 30 | > 30 | > 30 | 2.2 (≈ 4.18 µM) | 212 (≈ 403 µM) | > 20 | > 20 | > 20 | > 20 | > 20 | 4020 | 597 | 46.9 | fraction unbound [17]: 0.013; ED50 (Rattus norvegicus [18]): 0.3 mg/kg
